Data as given in patent US8222404B2, “[1,2,4]Thiadiazin-3-yl acetic acid compound and methods of making the acetic acid compound” (Anadys Pharmaceuticals, Inc., priority 2008, dated 2012).

These molecules were tested on HCV Huh-luc/neo-ET replicon cells (assay: Luciferase-Based HCV Replicon Assay (EC50 (1b))). Details: 72 hours exposure, luciferase activity.
Type: cell-based
Description: Luciferase-Based HCV Replicon Assay Protocol (EC50 (1b))
The cell culture component of the assay was performed essentially as described by Bartenschlager et al., Hepatology 2002, 35, 694-703, wherein exponentially growing HCV Huh-luc/neo-ET replicon cells were seeded at 6×10^3 cells/well in 96 well assay plate. 24 hours later the cells were treated with various concentrations of compound in triplicate. After 72 hours exposure to the compound, the luciferase activity in the wells was determined using Bright-Glo reagent (Promega, Madison, Wis.) with a luminometer (Wallac 1420 Multilabel HTS Counter Victor 2). The background control was replicon cells treated with 100 nM BILN-2061, an inhibitor of the HCV protease. % Inhibition was determined for each compound concentration in relation to the negative (no compound) control to calculate the EC50 (1b).

| SMILES | EC50 [nM] |
| --- | --- |
| CC(C)(C)CCN1C(=O)C(C2=NS(=O)(=O)c3c(CNS(C)(=O)=O)csc3N2)=C(O)C2C3CCC(C4CC43)C21 (racemic) [Example 25, (rac-di-exo)-N-{3-[3-(3,3-Dimethyl-butyl)-6-hydroxy-4-oxo-3-aza-tetracyclo[6.3.2.0^2,7.0^9,11]tridec-5-en-5-yl]-1,1-dioxo-1,4-dihydro-1λ^6-thieno[2,3-e][1,2,4]thiadiazin-7-ylmethyl}-methanesulfonamide] | ≤ 5 |

Same assay, conditions: Hepatitis C virus, 72 hours exposure, luciferase activity

| SMILES | EC50 [nM] |
| --- | --- |
| CS(=O)(=O)NCc1csc2c1S(=O)(=O)N=C(C1=C(O)C3CCCC3N(NC3CCC3)C1=O)N2 (racemic) [Example 27, (rac-cis)-N-[3-(1-cyclobutylamino-4-hydroxy-2-oxo-2,4a,5,6,7,7a-hexahydro-1H-[1]pyrindin-3-yl)-1,1-dioxo-1,4-dihydro-1λ^6-thieno[2,3-e][1,2,4]thiadiazin-7-ylmethyl]-methanesulfonamide] | > 1000 |
| CS(=O)(=O)NCc1csc2c1S(=O)(=O)N=C(C1=C(O)C3C4CC(C5CC54)C3N(Cc3ccc(F)cc3)C1=O)N2 (racemic) [Example 32, (rac-di-exo, di-exo)-N-{3-[3-(4-Fluoro-benzyl)-6-hydroxy-4-oxo-3-aza-tetracyclo[6.3.1.0^2,7.0^9,11]dodec-5-en-5-yl]-1,1-dioxo-1,4-dihydro-1λ^6-thieno[2,3-e][1,2,4]thiadiazin-7-ylmethyl}-methanesulfonamide] | ≤ 5 |
| CS(=O)(=O)NCc1csc2c1S(=O)(=O)N=C(C1=C(O)C3C4CCC(O4)C3N(Cc3ccccc3)C1=O)N2 (racemic) [Example 45, (rac-di-exo)-N-[3-(3-Benzyl-6-hydroxy-4-oxo-11-oxa-3-aza-tricyclo[6.2.1.0^2,7]undec-5-en-5-yl)-1,1-dioxo-1,4-dihydro-1λ^6-thieno[2,3-e][1,2,4]thiadiazin-7-ylmethyl]-methanesulfonamide] | 20 to 100 |
| CS(=O)(=O)NCc1csc2c1S(=O)(=O)N=C(C1=C(O)C3C4C=CC(C4)C3N(Cc3ccccc3)C1=O)N2 (racemic) [Example 46, (rac-di-exo)-N-[3-(3-Benzyl-6-hydroxy-4-oxo-3-aza-tricyclo[6.2.1.0^2,7]undeca-5,9-dien-5-yl)-1,1-dioxo-1,4-dihydro-1λ^6-thieno[2,3-e][1,2,4]thiadiazin-7-ylmethyl]-methanesulfonamide] | ≤ 5 |
| CS(=O)(=O)NCc1csc2c1S(=O)(=O)N=C(C1=C(O)C3C4C=CC(C4)C3N(Cc3ccc(F)cc3)C1=O)N2 (racemic) [Example 47, (rac-di-exo)-N-{3-[3-(4-Fluoro-benzyl)-6-hydroxy-4-oxo-3-aza-tricyclo[6.2.1.0^2,7]undeca-5,9-dien-5-yl]-1,1-dioxo-1,4-dihydro-1λ^6-thieno[2,3-e][1,2,4]thiadiazin-7-ylmethyl}-methanesulfonamide] | ≤ 5 |
| CS(=O)(=O)NCc1csc2c1S(=O)(=O)N=C(C1=C(O)C3C4CCC(O4)C3N(Cc3ccsc3)C1=O)N2 (racemic) [Example 61, (rac-di-exo)-N-[3-(6-Hydroxy-4-oxo-3-thiophen-3-ylmethyl-11-oxa-3-aza-tricyclo[6.2.1.0^2,7]undec-5-en-5-yl)-1,1-dioxo-1,4-dihydro-1λ^6-thieno[2,3-e][1,2,4]thiadiazin-7-ylmethyl]-methanesulfonamide] | 20 to 100 |
| CC(C)(C)CCN1C(=O)C(C2=NS(=O)(=O)c3c(CNS(C)(=O)=O)csc3N2)=C(O)C2C3CCC(O3)C21 (racemic) [Example 62, (rac-di-exo)-N-{3-[3-(3,3-Dimethyl-butyl)-6-hydroxy-4-oxo-11-oxa-3-aza-tricyclo[6.2.1.0^2,7]undec-5-en-5-yl]-1,1-dioxo-1,4-dihydro-1λ^6-thieno[2,3-e][1,2,4]thiadiazin-7-ylmethyl}-methanesulfonamide] | 5 to 20 |
| CC(C)CCN1C(=O)C(C2=NS(=O)(=O)c3c(CNS(C)(=O)=O)csc3N2)=C(O)C2C3CCC(O3)C21 (racemic) [Example 63, (rac-di-exo)-N-{3-[6-Hydroxy-3-(3-methyl-butyl)-4-oxo-11-oxa-3-aza-tricyclo[6.2.1.0^2,7]undec-5-en-5-yl]-1,1-dioxo-1,4-dihydro-1λ^6-thieno[2,3-e][1,2,4]thiadiazin-7-ylmethyl}-methanesulfonamide] | 20 to 100 |
| CS(=O)(=O)NCc1csc2c1S(=O)(=O)N=C(C1=C(O)C3C4C=CC(C4)C3N(Cc3ccsc3)C1=O)N2 (racemic) [Example 64, (rac-di-exo)-N-[3-(6-Hydroxy-4-oxo-3-thiophen-3-ylmethyl-3-aza-tricyclo[6.2.1.0^2,7]undeca-5,9-dien-5-yl)-1,1-dioxo-1,4-dihydro-1λ^6-thieno[2,3-e][1,2,4]thiadiazin-7-ylmethyl]-methanesulfonamide] | ≤ 5 |
| CC(C)(C)CCN1C(=O)C(C2=NS(=O)(=O)c3c(CNS(C)(=O)=O)csc3N2)=C(O)C2C3C=CC(C3)C21 (racemic) [Example 65, (rac-di-exo)-N-{3-[3-(3,3-Dimethyl-butyl)-6-hydroxy-4-oxo-3-aza-tricyclo[6.2.1.0^2,7]undeca-5,9-dien-5-yl]-1,1-dioxo-1,4-dihydro-1λ^6-thieno[2,3-e][1,2,4]thiadiazin-7-ylmethyl}-methanesulfonamide] | ≤ 5 |
| CC(C)CCN1C(=O)C(C2=NS(=O)(=O)c3c(CNS(C)(=O)=O)csc3N2)=C(O)C2C3C=CC(C3)C21 (racemic) [Example 66, (rac-di-exo)-N-{3-[6-Hydroxy-3-(3-methyl-butyl)-4-oxo-3-aza-tricyclo[6.2.1.0^2,7]undeca-5,9-dien-5-yl]-1,1-dioxo-1,4-dihydro-1λ^6-thieno[2,3-e][1,2,4]thiadiazin-7-ylmethyl}-methanesulfonamide] | 5 to 20 |
| COc1ccc(CN2C(=O)C(C3=NS(=O)(=O)c4c(CNS(C)(=O)=O)csc4N3)=C(O)C3C4CCC(O4)C32)c(OC)c1 (racemic) [Example 75, (rac-di-exo)-N-{3-[3-(2,4-Dimethoxy-benzyl)-6-hydroxy-4-oxo-11-oxa-3-aza-tricyclo[6.2.1.0^2,7]undec-5-en-5-yl]-1,1-dioxo-1,4-dihydro-1λ^6-thieno[2,3-e][1,2,4]thiadiazin-7-ylmethyl}-methanesulfonamide] | > 1000 |
| COc1ccc(CN2C(=O)C(C3=NS(=O)(=O)c4c(CNS(C)(=O)=O)csc4N3)=C(O)C3C4C=CC(C4)C32)c(OC)c1 (racemic) [Example 76, (rac-di-exo)-N-{3-[3-(2,4-Dimethoxy-benzyl)-6-hydroxy-4-oxo-3-aza-tricyclo[6.2.1.0^2,7]undeca-5,9-dien-5-yl]-1,1-dioxo-1,4-dihydro-1λ^6-thieno[2,3-e][1,2,4]thiadiazin-7-ylmethyl}-methanesulfonamide] | > 1000 |
| COc1ccc(CN2C(=O)C(C3=NS(=O)(=O)c4c(CNS(C)(=O)=O)csc4N3)=C(O)C3CCCCC32)c(OC)c1 (racemic) [Example 78, (rac-cis)-N-{3-[1-(2,4-Dimethoxy-benzyl)-4-hydroxy-2-oxo-1,2,4a,5,6,7,8,8a-octahydro-quinolin-3-yl]-1,1-dioxo-1,4-dihydro-1λ^6-thieno[2,3-e][1,2,4]thiadiazin-7-ylmethyl}-methanesulfonamide] | > 1000 |
